Experimental data from US20090081704A1, “COMPOSITIONS, METHODS AND KITS FOR REAL-TIME ENZYME ASSAYS USING CHARGED MOLECULES” (priority 2004, published 2009).
K(Dye2) = not defined here; K(tet) = not defined here; code O = not defined here; C17 = C17 chain

Experiments:
[1] = cited from earlier work
[2] = cited from earlier work; for Monera et al. Hydrophobicity at pH 7: normalized, phenylalanine 100, glycine 0
[3] = molecular target: T1, PKCβII (Homo sapiens, UniProt P05771); test: Inhibition of PKCβII in real-time micelle kinase assay; format: biochemical; conditions: FIGS. 5A-B, IC50 only in figures
T1 construct: purchased Upstate USA, Inc
Description: A reaction solution (10 μl) was prepared containing the hydrophobic molecule C16OOOK(Dye2)EEIYGEF-amide (10 μM), and 10 μM charge-balance molecule Myelin Basic Protein (Upstate USA, Inc. cat. no: 13-104), in 20 mM Tris buffer, pH 7.6, MgCl2 (5 mM), DTT (5 mM), 10% Lipid Activator (Upstate USA, Inc), and PKCβII (0.15 ng/μl, Upstate USA, Inc.). The solution was pipetted into wells of a 384-well plate (10 μL per well), Corning 384-well, black, non-binding surface (NBS), microwell plates. […] ATP (10 μM) was added to initiate the kinase reaction. Fluorescence was read in real-time every 2 minutes for 2 hours, at ambient temperature, using, Molecular Devices (Sunnyvale, Calif.) Analyst GT, with excitation and emission set at 485 and 535 nm respectively.

[4] = molecular target: T2, MAP kinase2/Erk2 (Homo sapiens, UniProt P28482); test: Real-time kinase assay with hydrophobic molecule and myelin basic protein micelle; format: biochemical; conditions: FIG. 3C
T2 construct: purchased Upstate USA, Inc
Description: (§1) The compositions described herein are useful in the detection of enzymes. Real-time kinase assays for PKCβII, MAP kinase1/Erk1, and MAP kinase2/Erk2 using the hydrophobic molecule, C16OOOK(Dye 2)EEIYGEF-amide and charge-balance molecule, myelin basic protein with 0 or 100 μM ATP, are shown in FIGS. 3A-C.
(§2) A reaction solution (10 μl) was prepared containing the hydrophobic molecule C16OOOK(Dye2)EEIYGEF-amide (10 μM), and 10 μM charge-balance molecule Myelin Basic Protein (Upstate cat. no: 13-104), in 20 mM Tris buffer, pH 7.6, MgCl2 (5 mM), DTT (5 mM) and either PKCβII (0.15 ng/μl, Upstate USA, Inc.), MAP kinase1/Erk1 (1.5 ng/μl, Upstate USA, Inc.), or MAP kinase2/Erk2 (1.5 ng/μl, Upstate USA, Inc.). The solution was pipetted into wells of a 384-well plate (10 μL per well), Corning 384-well, black, non-binding surface (NBS), microwell plates. ATP (0 or 500 μM) was added to initiate the kinase reaction. Fluorescence was read in real-time every 2 minutes for 2 hours, at ambient temperature, using, Molecular Devices (Sunnyvale, Calif.) Analyst GT, with excitation and emission set at 485 and 535 nm respectively.

[5] = molecular target: T1, PKCβII; test: as above; format: biochemical; conditions: FIG. 3A
Description: as §1, §2

[6] = molecular target: T3, MAP kinase1/Erk1 (Homo sapiens, UniProt P27361); test: as above; format: biochemical; conditions: FIG. 3B
T3 construct: purchased Upstate USA, Inc
Description: as §1, §2

[7] = Freeze fracture electron microscopy of micelles; format: physicochemical; conditions: 25 mM Tris pH 7.6; for micelle form seen in electron micrograph: FIGS. 1A-B
From the text: Micelle formation can be detected in a variety of ways, including fluorescence titration of the molecules in detergent, and dynamic laser light scattering. Additionally, direct visual evidence of micelle formation, and micelle disruption by adding a charged group, can be obtained by freeze fracturing electron microscopy. For example, FIG. 1A is an electron micrograph of micelles comprising the hydrophobic molecule, C17OOOK(tet)RQGSFRA-amide. […] “Tet” is a fluorescent moiety provided by 2′,7′,4,7-tetachloro-5-carboxy fluorescein (2′,7-dichloro-5-carboxy-4,7-dichlorofluorescein). OOO represents optional O-spacers comprising (bis)ethylene glycol group(s). […] FIG. 1B is an electron micrograph of micelles comprising a phosphorylated hydrophobic molecule, C17OOOK(tet)RQGS(p)FRA-amide. […] Thus, the addition of two negative charges to the hydrophobic molecule, results in micelle disruption and deaggregation.
For freeze fracture electron microscopy, the hydrophobic molecule, C17OOO K(tet)RQGSFRA-amide phosphorylated hydrophobic molecule C17OOOK (tet)RQGS(p)FRA-amide were each dissolved in 25 mM Tris (pH 7.6), 5 mM MgCl and 5 mM DTT. The samples were frozen in liquid nitrogen-cooled propane. […] The fracturing process was carried out in a JEOL JED-9000 freeze-etching machine and the exposed fractured planes were shadowed with Pt for thirty seconds at an angle of 25-35 C and with carbon for 35 seconds (2 kV/60-70 mA, 1×10^−5 Torr). The replicas produced were cleaned with concentrated chloroform/methanol (1:1 by volume) at least five times. The cleaned replicas were examined with a JEOL 1000CX or Philips CM 10 electron microscope.

T1 sequence (P05771 1-673 isoform P05771-2): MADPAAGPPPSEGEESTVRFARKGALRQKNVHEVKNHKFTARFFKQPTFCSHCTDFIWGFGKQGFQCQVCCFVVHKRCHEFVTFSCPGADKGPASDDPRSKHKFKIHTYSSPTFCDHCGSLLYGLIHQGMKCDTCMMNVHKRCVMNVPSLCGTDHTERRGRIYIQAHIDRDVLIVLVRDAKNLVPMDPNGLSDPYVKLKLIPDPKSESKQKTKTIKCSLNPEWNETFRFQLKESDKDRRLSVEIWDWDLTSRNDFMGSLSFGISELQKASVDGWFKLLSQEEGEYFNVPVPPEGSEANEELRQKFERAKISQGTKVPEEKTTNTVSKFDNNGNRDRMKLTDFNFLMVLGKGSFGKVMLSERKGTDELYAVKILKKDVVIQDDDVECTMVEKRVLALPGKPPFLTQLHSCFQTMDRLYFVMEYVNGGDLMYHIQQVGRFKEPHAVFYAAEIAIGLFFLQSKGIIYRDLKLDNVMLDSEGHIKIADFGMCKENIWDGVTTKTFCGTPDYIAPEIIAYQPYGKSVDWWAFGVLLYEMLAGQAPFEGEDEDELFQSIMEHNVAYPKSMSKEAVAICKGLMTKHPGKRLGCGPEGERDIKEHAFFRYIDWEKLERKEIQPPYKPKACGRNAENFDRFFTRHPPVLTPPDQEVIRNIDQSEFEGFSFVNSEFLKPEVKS
T2 sequence (P28482 whole entry): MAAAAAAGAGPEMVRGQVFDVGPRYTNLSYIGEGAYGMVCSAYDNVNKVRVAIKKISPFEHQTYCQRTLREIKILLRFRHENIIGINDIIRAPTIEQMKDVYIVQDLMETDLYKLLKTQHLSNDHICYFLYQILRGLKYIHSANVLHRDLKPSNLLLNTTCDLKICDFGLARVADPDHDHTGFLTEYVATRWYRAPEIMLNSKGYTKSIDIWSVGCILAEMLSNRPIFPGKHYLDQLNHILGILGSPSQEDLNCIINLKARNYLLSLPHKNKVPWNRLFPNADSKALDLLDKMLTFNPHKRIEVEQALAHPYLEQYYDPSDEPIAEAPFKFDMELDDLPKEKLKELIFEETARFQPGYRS
T3 sequence (P27361 whole entry): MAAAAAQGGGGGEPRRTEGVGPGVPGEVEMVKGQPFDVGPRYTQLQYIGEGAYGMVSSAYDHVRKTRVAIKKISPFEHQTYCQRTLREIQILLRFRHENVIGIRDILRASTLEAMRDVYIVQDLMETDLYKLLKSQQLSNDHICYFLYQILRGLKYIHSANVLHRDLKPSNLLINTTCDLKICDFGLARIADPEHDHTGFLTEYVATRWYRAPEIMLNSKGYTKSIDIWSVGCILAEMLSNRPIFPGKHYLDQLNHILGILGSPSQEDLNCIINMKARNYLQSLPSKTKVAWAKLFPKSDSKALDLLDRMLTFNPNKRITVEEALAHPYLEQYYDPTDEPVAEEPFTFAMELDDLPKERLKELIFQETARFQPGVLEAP

Compound | α-COOH pKa [1] | Monera et al. Hydrophobicity at pH 7 [2] | α-NH3+ pKa [1] | further results
C[C@H](N)C(=O)O [Alanine (A), Alanine] | 2.4 | 41 |  | 
N=C(N)NCCC[C@H](N)C(=O)O [Arginine (R), Arginine] | 2.2 |  |  | 
NC(=O)C[C@H](N)C(=O)O [Asparagine (N), Asparagine] | 2.0 | −28 | 8.8 | 
N[C@@H](CS)C(=O)O [Cysteine (C), Cysteine] |  | 49 |  | Side chain pKa [1]: about 8
O=S(=O)(NCCNC/C=C/c1ccc(Br)cc1)c1cccc2cnccc12 [H98, H89] |  |  |  | effect of increasing concentrations of enzyme inhibitor on fluorescence [3]: decrease in fluorescence
N[C@@H](Cc1c[nH]cn1)C(=O)O [Histidine (H), Histidine] |  | 8 |  | 
CC[C@H](C)[C@H](N)C(=O)O [Isoleucine (I), Isoleucine] | 2.4 | 99 | 9.7 | 
NCCCC[C@H](N)C(=O)O [Lysine (K), Lysine] |  | −23 | 9.0 | 
CSCC[C@H](N)C(=O)O [Methionine (M), Methionine] | 2.3 | 74 | 9.2 | 
N[C@@H](Cc1ccccc1)C(=O)O [Phenylalanine (F), Phenylalanine] |  | 100 |  | 
O=C(O)[C@@H]1CCCN1 [Proline (P), Proline] | 2.1 |  |  | Monera et al. Hydrophobicity ([2]; pH 2): −46 (pH 2)
N[C@@H](CO)C(=O)O [Serine (S), Serine] |  | −5 | 9.2 | Side chain pKa [1]: ~13
C[C@@H](O)[C@H](N)C(=O)O [Threonine (T), Threonine] | 2.6 |  | 10.4 | Side chain pKa [1]: ~13
N[C@@H](Cc1c[nH]c2ccccc12)C(=O)O [Tryptophan (W), Tryptophan] | 2.4 | 97 |  | 
N[C@@H](Cc1ccc(O)cc1)C(=O)O [Tyrosine (Y), Tyrosine] |  | 63 |  | 
CC(C)[C@H](N)C(=O)O [Valine (V), Valine] |  | 76 |  | 
C16OOOK(Dye2)EEIYGEF-amide ({C16-code O-code O-code O-K(Dye2)}-EEIYGEF-NH2; reading uncertain; also: printed as C16OOOK(Dye2)EEIYGEF-amide) [C16OOOK(Dye 2)EEIYGEF-amide, hydrophobic molecule: C16 carbon chain, O-spacers, lysine-linked 5-carboxy-2′,7′-dipyridyl-sulfonefluorescein, peptide EEIYGEF-amide] |  |  |  | increase in fluorescence over time on addition of enzyme [4]: greater than 4 fold; increase in fluorescence over time on addition of enzyme [5]: greater than 4 fold; increase in fluorescence over time on addition of enzyme [6]: greater than 4 fold
C17OOOK(tet)RQGS(p)FRA-amide |  |  |  | micelle form seen in electron micrograph [7]: only form small spheres and small clusters of spheres
C17OOOK(tet)RQGSFRA-amide ({C17-code O-code O-code O-K(tet)}-RQGSFRA-NH2; reading uncertain; also: printed as C17OOOK(tet)RQGSFRA-amide) [hydrophobic molecule: C17 carbon chain, O-spacers, lysine-linked tet fluorescein dye, peptide RQGSFRA-amide] |  |  |  | micelle form seen in electron micrograph [7]: cylindrical or tubular micelles; diameter of cylindrical or tubular micelles ([7]; electron micrograph FIG. 1A): 20-60 nm; length of cylindrical or tubular micelles ([7]; electron micrograph FIG. 1A): 200-1000 nm
